Data as given in PMC11466185, “Mechanisms and efficacy of small molecule latency-promoting agents to inhibit HIV reactivation ex vivo” (JCI Insight, 2024).
Values joined by “and” are separate entries in the source; they are usually repeats but may differ in a detail not shown here. Equal values may be shown once. Read-outs that look alike come from different tables or passages of the source.

Key:
[1] = test system: HIV transcripts (TAR, LLTR, Pol, PolyA, TatRev); test: Cell-associated HIV transcripts (RT-ddPCR) 6 days after anti-CD3/CD28 activation of PBMCs from ART-suppressed PWH; format: cell-based; settings: for Pol / PolyA / TAR / TatRev: DMSO αCD3/28 = 100, Fig 4A; for LLTR/TAR / PolyA/LLTR / TatRev/PolyA: DMSO+CD3/28 = 1, Fig 4B, C and D
Procedure: (§1) Next, we evaluated the ability of the candidate LPAs to sustain the inhibitory effects during a prolonged ex vivo culture. To this end, PBMCs were cultured in the presence of individual drugs in DMSO or in DMSO alone as control, activated (anti-CD3/CD28), and harvested after 6 days. […] However, we decided to test the drug on day 6 because extra cells were available from some study participants.
Each drug was tested in PBMCs from at least 6 ART-suppressed study participants (except for KRIBB11, n = 5). PBMCs were aliquoted into wells at 6 × 10^6 cells/well. After activation, the cells were cultured with antiretrovirals in the presence of individual drugs in DMSO or DMSO alone as control. All conditions were tested in the presence of CD3/28 T cell–activating beads, except for the unactivated DMSO condition. After 6 days, total cellular RNA was extracted, and the progression through different stages of HIV transcription was quantified by measuring the levels of initiated (TAR), 5′ elongated (LLTR), midtranscribed/unspliced (Pol), completed (PolyA), and multiply spliced (TatRev) HIV transcripts. (A) The levels of all HIV transcripts were normalized to 1 μg of total cellular RNA and expressed as a percentage of the activated DMSO control (% of activated DMSO). Medians are shown as well as the individual values per study participant in different colors. (B–D) The effect of each drug on HIV transcriptional progression after activation was analyzed by the ratio of one HIV transcript to another. Ratios are independent of HIV infection frequency or normalization to cell numbers. Shown are the proportion of (B) all HIV transcripts that are elongated (LLTR/TAR), (C) elongated HIV transcripts that are completed (PolyA/LLTR), and (D) completed transcripts that are multiply spliced (TatRev/PolyA). Medians and IQR are presented, along with the individual values per study participant in different colors. P values were calculated using Wilcoxon’s signed-rank test: *P < 0.05.
PBMCs were isolated from fresh venous blood from 16 ART-suppressed HIV-infected study participants using Ficoll density gradient centrifugation. The cells were seeded at 6 × 10^6 cells/well and cultured with antiretrovirals (nevirapine and indinavir) to prevent new infection. On the next day, PBMCs were activated with anti-CD3/CD28–coated beads (Invitrogen) in the presence of 20 U/mL IL-2 and individual drugs in DMSO or DMSO alone as a control. Since we were limited in the PBMC yield per study participant, different study participants were used for different experiments (such as the initial screen, dose response, different time points, and studies in activated vs. unstimulated cells). In addition, the yields of PBMCs were sometimes insufficient to test all drugs for a given question or experiment.
(§2) For quantification of cell-associated HIV transcripts, PBMCs were harvested either after 24 hours or after 6 days. The cell viabilities were measured by trypan blue staining; then the cells were pelleted by centrifuging at 300g for 6 minutes and stored at –80°C. For quantification of virion-associated HIV RNA, cell culture supernatant was collected from 6 × 10^6 PBMCs that were treated and activated for 6 days as described above. Residual cells and cellular debris were subsequently removed from the supernatant by differential centrifugation (300g for 6 minutes, then 20,000g for 10 minutes), and the supernatant was stored at –80°C.
Total cellular DNA and RNA were extracted in parallel using Trireagent (Molecular Research Center) according to the manufacturer’s instructions, except for study participants 2147 and 2461 (Figure 4), for whom DNA and RNA were extracted using the QIAGEN AllPrep DNA/RNA/miRNA Universal Kit with on-column DNase I treatment of the RNA and the manufacturer’s modification to enhance recovery of short transcripts.

PBMCs [2] = format: cell-based, human; settings: 6 days after αCD3/28 activation, each row one participant
Procedure: as §1, §2
A) After six days, the viability was measured by trypan blue staining and then normalized to the levels of the activated DMSO (% of activated DMSO). Bars indicate medians and different colors indicate individual study participants. B-F) Each drug was tested in PBMCs from at least six ART-suppressed study participants (except for KRIBB11, n=5) and the PBMCs were aliquoted into wells at 6x10^6 cells/well. After activation, the cells were cultured with antiretrovirals in the presence of individual drugs in DMSO or DMSO alone as control. After six days, total RNA was extracted and the progression through different stages of HIV transcription was (1 picture or pasted object on this page, not shown here)

PBMCs [3] = test: Total number of live cells (proliferation) by trypan blue staining at day 6; format: cell-based, human; settings: for Total live cell numbers (proliferation) compared with activated DMSO (in words) / Total number of live cells (Fig 6A): day 6; for Total live cell numbers (proliferation) compared with activated DMSO (in words): Figure 6A; for Fig 6B: total live cells relative to DMSO+CD3/28: DMSO+CD3/28 = 100
Procedure: Some of our candidate LPAs can block the effects of T cell activation, which could affect T cell proliferation. Therefore, we evaluated the extent to which variations in the level of infected cells may contribute to reductions in different HIV RNA transcripts. We measured the total number of viable cells (as a measure of proliferation) and the conserved U3-U5 LTR HIV DNA region (as a measure of total infection frequency) at day 6.
(A) After 6 days, the total number of live cells was measured by trypan blue staining and then normalized to the levels of the activated DMSO (% of activated DMSO). All conditions were tested in the presence of CD3^+/CD28^+ T cell–activating beads, except for the unactivated DMSO condition. Bars indicate medians, and different colors indicate individual study participants. Comparisons were performed using Wilcoxon’s signed-rank test. (B) Total cellular DNA was extracted, and the levels of U3-U5 HIV DNA were measured to quantify infection frequency at 6 days. HIV DNA levels were normalized to copies per 10^6 cells using the input of cellular DNA (assuming 1 μg of total DNA corresponds to 160,000 cells) and then normalized to the activated DMSO control (% of activated DMSO). Bars indicate medians, and different colors indicate individual study participants.

Compound: pladienolide B
- LLTR HIV transcripts (DMSO αCD3/28 = 100) ([1]; 10nM, 6 days after αCD3/28 activation, each column one participant): 48.15 and 112.06 and 64.44 and 97.37 and 80.45 and 82.86
- Pol ([1]; participant 2027): 56.14
- PolyA ([1]; participant 2027): 45.13
- TAR ([1]; participant 2027): 270.3
- TatRev ([1]; participant 2027): 0
- LLTR/TAR ([1]; participant 2027): 0.3065
- PolyA/LLTR ([1]; participant 2027): 0.5447
- TatRev/PolyA ([1]; participant 2027): 0
- Pol ([1]; participant 2147a): 74.51
- PolyA ([1]; participant 2147a): 38.34
- TAR ([1]; participant 2147a): 177.4
- TatRev ([1]; participant 2147a): 22.95
- LLTR/TAR ([1]; participant 2147a): 0.2714
- PolyA/LLTR ([1]; participant 2147a): 0.7963
- TatRev/PolyA ([1]; participant 2147a): 0.342
- Pol ([1]; participant 2161): 44.19
- PolyA ([1]; participant 2161): 152.38
- TAR ([1]; participant 2161): 52.78
- TatRev ([1]; participant 2161): 381.82
- LLTR/TAR ([1]; participant 2161): 1.5241
- PolyA/LLTR ([1]; participant 2161): 1.89
- TatRev/PolyA ([1]; participant 2161): 2.506
- PolyA ([1]; participant 2461): 53.85
- TAR ([1]; participant 2461): 91.45
- LLTR/TAR ([1]; participant 2461): 1.065
- PolyA/LLTR ([1]; participant 2461): 0.553
- Pol ([1]; participant 2747): 21.03
- PolyA ([1]; participant 2747): 65.33
- TAR ([1]; participant 2747): 95.91
- TatRev ([1]; participant 2747): 0
- TatRev/PolyA ([1]; participant 2747): 0
- Pol ([1]; participant 2750): 212.24
- PolyA ([1]; participant 2750): 74.85
- TAR ([1]; participant 2750): 108.21
- TatRev ([1]; participant 2750): 155
- LLTR/TAR ([1]; participant 2750): 1.036
- PolyA/LLTR ([1]; participant 2750): 0.668
- TatRev/PolyA ([1]; participant 2750): 2.0707
- Cell viability (DMSO αCD3/28 = 100) (PBMCs [2]; 10nM): 115.2 and 113.39 and 90.65 and 128.6 and 121.6 and 94.2 and 112.8
- Total live cell numbers (proliferation) compared with activated DMSO (in words) (PBMCs [3]): significantly lower
- Fig 6B: total live cells relative to DMSO+CD3/28 (PBMCs [3]; participant 2027): 130.18
- Fig 6B: total live cells relative to DMSO+CD3/28 (PBMCs [3]; participant 2147a): 87.14
- Fig 6B: total live cells relative to DMSO+CD3/28 (PBMCs [3]; participant 2147b): 432.65
- Fig 6B: total live cells relative to DMSO+CD3/28 (PBMCs [3]; participant 2161): 52.54
- Fig 6B: total live cells relative to DMSO+CD3/28 (PBMCs [3]; participant 2461): 69.04
- Fig 6B: total live cells relative to DMSO+CD3/28 (PBMCs [3]; participant 2747): 68.1
- Total number of live cells (Fig 6A) (PBMCs [3]; study participant 150a): 26.64 % of activated DMSO
- Total number of live cells (Fig 6A) (PBMCs [3]; study participant 156): 40.97 % of activated DMSO
- Total number of live cells (Fig 6A) (PBMCs [3]; study participant 163): 70.82 % of activated DMSO
- Total number of live cells (Fig 6A) (PBMCs [3]; study participant 2027): 28.6 % of activated DMSO
- Total number of live cells (Fig 6A) (PBMCs [3]; study participant 2147a): 113.84 % of activated DMSO
- Total number of live cells (Fig 6A) (PBMCs [3]; study participant 2147b): 53.49 % of activated DMSO
- Total number of live cells (Fig 6A) (PBMCs [3]; study participant 2161): 58.44 % of activated DMSO
- Total number of live cells (Fig 6A) (PBMCs [3]; study participant 2461): 29.57 % of activated DMSO
- Total number of live cells (Fig 6A) (PBMCs [3]; study participant 2747): 105.45 % of activated DMSO
- Total number of live cells (Fig 6A) (PBMCs [3]; study participant 2750): 17.9 % of activated DMSO

Compound: O=c1c(O)c(-c2ccc(O)c(O)c2)oc2cc(O)cc(O)c12 [quercetin]
- LLTR/TAR ([1]; participant 150b): 0.7842
- PolyA/LLTR ([1]; participant 150b): 1.289
- TatRev/PolyA ([1]; participant 150b): 0.75
- LLTR/TAR ([1]; participant 2027): 0.9301
- PolyA/LLTR ([1]; participant 2027): 0.981
- TatRev/PolyA ([1]; participant 2027): 0.6894
- LLTR/TAR ([1]; participant 2147a): 0.08494
- PolyA/LLTR ([1]; participant 2147a): 0.5196
- TatRev/PolyA ([1]; participant 2147a): 0.8518
- PolyA/LLTR ([1]; participant 2161): 0.79
- TatRev/PolyA ([1]; participant 2161): 0.8634
- LLTR/TAR ([1]; participant 2256): 0.9386
- PolyA/LLTR ([1]; participant 2256): 0.8949
- LLTR/TAR ([1]; participant 2461): 1.332
- TatRev/PolyA ([1]; participant 2747): 0
- Cell viability (DMSO αCD3/28 = 100) (PBMCs [2]; 5μM): 74.1 and 98.05 and 112.6 and 106 and 105.8
- Total live cell numbers (proliferation) compared with activated DMSO (in words) (PBMCs [3]): did not change proliferation rates

Compound: CC(C)[C@]12O[C@H]1[C@@H]1O[C@]13[C@]1(O[C@H]1C[C@H]1C4=C(CC[C@@]13C)C(=O)OC4)[C@@H]2O [triptolide]
- LLTR/TAR ([1]; participant 150b): 0.3514
- LLTR/TAR ([1]; participant 2147b): 1.135
- LLTR/TAR ([1]; participant 2750): 14.8232
- Cell viability (DMSO αCD3/28 = 100) (PBMCs [2]; 25-50nM): 81.87 and 92.51 and 90.83 and 106.88 and 80.32 and 104.1
- Total live cell numbers (proliferation) compared with activated DMSO (in words) (PBMCs [3]): significantly lower

Compound: C=CCNC1=C2C[C@@H](C)C[C@H](OC)[C@H](O)[C@@H](C)/C=C(\C)[C@H](OC(N)=O)[C@@H](OC)/C=C\C=C(/C)C(=O)NC(=CC1=O)C2=O [tanespimycin]
- LLTR/TAR ([1]; participant 150b): 1.555
- PolyA/LLTR ([1]; participant 150b): 0.0721
- TatRev/PolyA ([1]; participant 150b): 1.52
- LLTR/TAR ([1]; participant 1379): 1.931
- PolyA/LLTR ([1]; participant 1379): 0
- LLTR/TAR ([1]; participant 1713): 0.63
- PolyA/LLTR ([1]; participant 1713): 0.35
- LLTR/TAR ([1]; participant 2147b): 1.469
- PolyA/LLTR ([1]; participant 2147b): 0
- LLTR/TAR ([1]; participant 2256): 1.634
- PolyA/LLTR ([1]; participant 2256): 0.2174
- TatRev/PolyA ([1]; participant 2256): 3.43
- LLTR/TAR ([1]; participant 2750): 1.458
- PolyA/LLTR ([1]; participant 2750): 1.811
- TatRev/PolyA ([1]; participant 2750): 0
- LLTR/TAR ([1]; participant 5557): 1.09
- PolyA/LLTR ([1]; participant 5557): 0.1459
- TatRev/PolyA ([1]; participant 5557): 0
- Cell viability (DMSO αCD3/28 = 100) (PBMCs [2]; 5μM): 119.92 and 93.07 and 93.65 and 100.43 and 91.95 and 100.9 and 116.6
- Total live cell numbers (proliferation) compared with activated DMSO (in words) (PBMCs [3]): significantly lower
